How the values were obtained:
[1] = test system: 23 lung, breast, ovarian, colorectal, and prostate cell lines; test: 18 hour viability assay (ATP quantitation); assay type: cell-based; conditions: Homo sapiens, 100 nM, range over 23 cell lines, read-out: cell viability relative to DMSO-negative control
[2] = test system: solid tumor xenograft panel; test: Xenograft pharmacodynamic analysis (immunoblot of tumor lysates); assay type: in vivo, mice; conditions: 40 mg/kg, 6 hours post-dosing, high MCL-1:BCL-xL ratio tumors
Description: Each tumor was divided into three parts. Two parts were snap frozen in liquid nitrogen and stored at −80° C. The third part was preserved in 10% neutral buffered formalin for 24 hours then stored in 70% ethanol at ambient temperature. Whole cell lysates from one snap frozen part were prepared by disruption/homogenation at 4° C. in a 2 ml conical-end microfuge tube containing two stainless steel beads ( 5/32″, grade 25, Ball Supply Corp) and 0.4 ml lysis buffer [1% Triton X-100, 30 mM Tris pH 7.4, 1 mM EDTA and protease (complete, mini, EDTA-free, Roche) and phosphatase (PhosSTOP, Roche) cocktail inhibitors] using a Qiagen Lyser II, shaking at 30 Hz for 2 minutes. 200 μl of pre-chilled 3×RIPA (Cell Signaling Technology) containing protease and phosphatase cocktail inhibitors was added to the homogenate, rotated at 4° C. for 10 minutes, and microcentrifuged at 12 kpm for 10 minutes at 4° C. The supernatant was removed, normalized for protein content using a BCA kit (Pierce, Rockford, Ill.) and stored at −80° C. For Western blots, 5 μg of lysate were subjected to SDS-PAGE except for cleaved PARP analysis, which required loading of 0.5 μg of lysate.

CCc1cnn2c(NCc3ccc[n+]([O-])c3)cc(N3CCCC[C@H]3CCO)nc12 [SCH 727965 (Dinaciclib)]
viability at 0.1 µM [1]: 23 to 102% | apoptosis (cleaved PARP) in tumors [2]: induced apoptosis
